In test [1] the test system is Colletotrichum destructivum. The test can be described thus: Colletotrichum destructivum leaf inoculation test (Chinese cabbage leaf). To be noted: 25° C., 4 days, lesions by visual inspection. The class given is in vivo. The source says: In the present example, a suspension comprising Colletotrichum destructivum and a peptide to be tested was dropped on a plant leaf, and lesions were then observed by visual inspection to evaluate the antimicrobial activity of the tested peptide. First, the pores of Colletotrichum destructivum were suspended in water to result in a spore concentration of 5×10^5 spores/ml, so as to prepare a water suspension of spores. Subsequently, peptides to be tested (TsORF18 (full length), TsORF18-40 a.a., and TsORF18-2) were each added to the water suspension of spores, so that the final concentration of the peptides to be tested became 0 μM, 1 μM, 10 μM or 100 μM. Thereafter, 10 μl each of the water suspension of spores containing the peptide to be tested was dropped on the front side and the back side of the leaf of Chinese cabbage (variety name: “Kigokoro 85”). In this condition, incubation was carried out at 25° C. for 4 days. Thereafter, the front and back sides of the leaf were observed by visual inspection.

For test [2], the system named is plant pathogenic filamentous fungi. Type of test: cell-based. To be noted: summary of Table 3.
Test [3] relates to Colletotrichum orbiculare. The class given is cell-based. Particulars: 25° C., 1 day or 2 days.
Test [4] concerns Fusarium oxysporum. Type of test: cell-based.
Test [5] has as its system Colletotrichum destructivum. Type of test: cell-based. Particulars: 25° C., 1 day or 2 days.
Test [6] concerns Pyricularia oryzae. The class given is cell-based. To be noted: 25° C., 1 day or 2 days.
Test [7] has as its system Botrytis cinerea. Type of test: cell-based. To be noted: 25° C., 1 day or 2 days.
Test [8] relates to Botrytis cinerea. As to the kind of experiment: Botrytis cinerea leaf inoculation test (tomato leaf). Type of test: in vivo. To be noted: peptide 100 μM; tomato leaf, 25° C., 2 days, lesions by visual inspection. The method, then:
In the present example, a suspension comprising Botrytis cinerea and a peptide to be tested was dropped on a plant leaf, and lesions were then observed by visual inspection to evaluate the antimicrobial activity of the tested peptide. First, the pores of Botrytis cinerea were suspended in a potato dextrose broth (PDB) to result in a spore concentration of 5×10^5 spores/ml, so as to prepare a PDB suspension spore solution. Subsequently, a peptide to be tested (TsORF18-2) was added to the PDB suspension spore solution, so that the final concentration of the peptide to be tested became 0 μM, 1 μM, 10 μM or 100 μM. It is to be noted that, as peptides to be tested, TsORF18 (full length) and TsORF18-40 a.a. were also used in the same manner as that of TsORF18-2. TsORF18 (full length) was dissolved in DMSO and was then used. On the other hand, TsORF18-2 and TsORF18-40 a.a were each dissolved in Milli-Q water and were then used. Thereafter, 10 μl each of the PDB suspension spore solution containing the peptide to be tested was dropped on the front side and the back side of the leaf of tomato (variety name: “Ponte Rosa”). In this condition, incubation was carried out at 25° C. for 2 days. Thereafter, the front and back sides of the leaf were observed by visual inspection.

“And” between values parts separate entries of the source, which are not always exact repeats. Equal entries are not always repeated. Where two headings read alike, the source gives them in different places.

On to “KFWRIWKG (listed as Solanum lycopersicum) [TsORF18-2-8aa-13]”, for which the “Leaf inoculation test Chinese cabbage/Colletotrichum destructivum” value in test [1] (peptide 10 μM) and in test [1] (peptide 100 μM) was “∘” throughout. In test [2], the “germination inhibitory activity against plant pathogenic filamentous fungi (in words)” value (shortened to “germination inhibitory activity”) is recorded as “extremely excellent germination inhibitory activity”. For the same substance, the figures for the “Plate antimicrobial activity test Collectotrichum orbiculare (level)” value in test [3] (peptide 1 μM), in test [3] (peptide 10 μM) and in test [3] (peptide 100 μM) were 0, 0 and 3, respectively. Further, in test [4], the “Plate antimicrobial activity test Fusarium oxysporum (level)” value is 3 and 2 and 0. The “Plate antimicrobial activity test Colletotrichum destructivum (level)” value in test [5] (peptide 1 μM) is recorded as 0; in test [5] (peptide 10 μM), 0; in test [5] (peptide 100 μM) it was 3. Besides, the “Plate antimicrobial activity test Pyricularia oryzae (level)” value in test [6] (peptide 1 μM), in test [6] (peptide 10 μM) and in test [6] (peptide 100 μM) was 0 throughout. For the same substance, the figures for the “Plate antimicrobial activity test Botrytis cinerea (level)” value in test [7] (peptide 1 μM), in test [7] (peptide 10 μM) and in test [7] (peptide 100 μM) were 0, 0 and 3, respectively. In addition, in test [8], the “Leaf inoculation test Tomato/Botrytis cinerea” value is on record as “∘”.
Take “RKFWR (listed as Solanum lycopersicum) [TsORF18-2-5aa-12]”: the “Leaf inoculation test Chinese cabbage/Colletotrichum destructivum” value in test [1] (peptide 10 μM) and in test [1] (peptide 100 μM) was “∘” in each case. Further, the “germination inhibitory activity” value in test [2] is reported as “extremely excellent germination inhibitory activity”. In addition, the “Plate antimicrobial activity test Collectotrichum orbiculare (level)” value was determined as 0 in test [3] (peptide 1 μM), 0 in test [3] (peptide 10 μM) and 2 in test [3] (peptide 100 μM). Moreover, the “Plate antimicrobial activity test Fusarium oxysporum (level)” value in test [4] is 3 and 0. Also, the “Plate antimicrobial activity test Colletotrichum destructivum (level)” value in test [5] (peptide 1 μM) is 0; in test [5] (peptide 10 μM), 0; in test [5] (peptide 100 μM), 3. The “Plate antimicrobial activity test Pyricularia oryzae (level)” value in test [6] (peptide 1 μM), in test [6] (peptide 10 μM) and in test [6] (peptide 100 μM) was 0 in each case. Also, the results for the “Plate antimicrobial activity test Botrytis cinerea (level)” value in test [7] (peptide 1 μM), in test [7] (peptide 10 μM) and in test [7] (peptide 100 μM) were 0, 0 and 3, respectively.
For the substance “RKFWRIWK (listed as Solanum lycopersicum) [TsORF18-2-8aa-12]”, the entries for the “Leaf inoculation test Chinese cabbage/Colletotrichum destructivum” value in test [1] (peptide 1 μM), in test [1] (peptide 10 μM) and in test [1] (peptide 100 μM) were “Δ”, “∘” and “∘”, respectively. In addition, the “germination inhibitory activity” value in test [2] was “extremely excellent germination inhibitory activity”. Besides, the entries for the “Plate antimicrobial activity test Collectotrichum orbiculare (level)” value in test [3] (peptide 1 μM), in test [3] (peptide 10 μM) and in test [3] (peptide 100 μM) were 0, 0 and 3, respectively. For the same substance, the “Plate antimicrobial activity test Fusarium oxysporum (level)” value in test [4] is 3 and 2 and 0. The “Plate antimicrobial activity test Colletotrichum destructivum (level)” value in test [5] (peptide 1 μM) was determined as 0; in test [5] (peptide 10 μM) it was 0; in test [5] (peptide 100 μM) it was 3. In addition, the “Plate antimicrobial activity test Pyricularia oryzae (level)” value in test [6] (peptide 1 μM), in test [6] (peptide 10 μM) and in test [6] (peptide 100 μM) was 0 in each case. The “Plate antimicrobial activity test Botrytis cinerea (level)” value was 0 in test [7] (peptide 1 μM), 1 in test [7] (peptide 10 μM) and 3 in test [7] (peptide 100 μM). Besides, the “Leaf inoculation test Tomato/Botrytis cinerea” value in test [8] is “∘”.
Regarding “RTRKFWRI (listed as Solanum lycopersicum) [TsORF18-2-8aa-10]”, the “Leaf inoculation test Chinese cabbage/Colletotrichum destructivum” value in test [1] (peptide 10 μM) and in test [1] (peptide 100 μM) was “∘” each time. Besides, the “germination inhibitory activity” value in test [2] is “extremely excellent germination inhibitory activity”. The “Plate antimicrobial activity test Collectotrichum orbiculare (level)” value in test [3] (peptide 1 μM) is 0; in test [3] (peptide 10 μM) it was 0; in test [3] (peptide 100 μM), 3. Further, the “Plate antimicrobial activity test Fusarium oxysporum (level)” value in test [4] was 3 and 1 and 0. The “Plate antimicrobial activity test Colletotrichum destructivum (level)” value in test [5] (peptide 1 μM) came to 0; in test [5] (peptide 10 μM), 0; in test [5] (peptide 100 μM), 3. The “Plate antimicrobial activity test Pyricularia oryzae (level)” value in test [6] (peptide 1 μM) was 0; in test [6] (peptide 10 μM), 0; in test [6] (peptide 100 μM), 1. For the same substance, the “Plate antimicrobial activity test Botrytis cinerea (level)” value in test [7] (peptide 1 μM) is 0; in test [7] (peptide 10 μM), 0; in test [7] (peptide 100 μM), 3.
As to “TRKFWRIW (listed as Solanum lycopersicum) [TsORF18-2-8aa-11]”, the “Leaf inoculation test Chinese cabbage/Colletotrichum destructivum” value in test [1] (peptide 10 μM) and in test [1] (peptide 100 μM) was “∘” in each case. The “germination inhibitory activity” value in test [2] was “extremely excellent germination inhibitory activity”. Also, the “Plate antimicrobial activity test Collectotrichum orbiculare (level)” value in test [3] (peptide 1 μM) is reported as 0; in test [3] (peptide 10 μM), 0; in test [3] (peptide 100 μM) it was 3. Besides, the “Plate antimicrobial activity test Fusarium oxysporum (level)” value in test [4] was 3 and 0. Moreover, the “Plate antimicrobial activity test Colletotrichum destructivum (level)” value was determined as 0 in test [5] (peptide 1 μM), 0 in test [5] (peptide 10 μM) and 3 in test [5] (peptide 100 μM). Also, the “Plate antimicrobial activity test Pyricularia oryzae (level)” value in test [6] (peptide 1 μM), in test [6] (peptide 10 μM) and in test [6] (peptide 100 μM) was 0 each time. Further, the “Plate antimicrobial activity test Botrytis cinerea (level)” value in test [7] (peptide 1 μM) turned out to be 0; in test [7] (peptide 10 μM), 0; in test [7] (peptide 100 μM), 3. The “Leaf inoculation test Tomato/Botrytis cinerea” value in test [8] was “∘”.

The record behind these values is US11952584B2, “Functional peptides having antimicrobial activity against phytopathogenic microorganisms” (TOYOTA JIDOSHA KABUSHIKI KAISHA, priority 2019, dated 2024).
